Experiment [1] relates to isolated pancreatic islets. The note with it: Am. J. Physiol 1996;271;C1098-C1102; cited from earlier work.
Another experiment has as its system healthy volunteers. The experiment can be described thus: Oral glucose tolerance test (OGTT) with nitroglycerin patch, plasma glucose and immunoreactive insulin. It counts as in vivo, human. The settings on record: for Insulin / Glucose: OGTT. On the procedure:
Twenty persons were studied.
Between 2 oral glucose, tolerance tests (OGTT) the volunteers were randomized for receiving either active NITRODERM TTS 10 (releasing approx. 0.4 mg hours^−1 nitroglycerin) or placebo patches. The study was carried out and evaluated in a double blind fashion. The patients received the glucose solution at 8 a.m. Venous blood samples were taken during fasting (immediately before glucose) and at 15, 30, 60, 90, 120 and 180 minutes after the glucose load. The samples evaluated for plasma glucose level (mmol 1^−1) and immunoreactive insulin responses (eU ml^−1). Plasma glucose was determined by means of an autoanalyzer, using the glucoseoxidease method. Immunoreactive insulin levels were assessed by radioimmunoassay method using antihuman antibody. During the study, two ECG leads (II and V1 or V6) and arterial blood pressure were continuously monitored.

Experiment [2] deals with normal conscious rabbits. The experiment is described as follows: Hyperinsulinaemic euglycaemic glucose clamping (insulin sensitivity), normal rabbits. It counts as in vivo, New Zealand white rabbits. On the procedure:
(§1) The experiments are carried out with adult, male New Zealand white rabbits, weighing 3.0-3.5 kg, housed as described in Am. J. Physiol 1994, Heart Circ. Physiol, 35: H2033-H2041 and J. Moll Cell.. Cardiol. 1997, 29: 1977-1983.
(§2) To estimate insulin sensitivity and/or insulin resistance, hyperinsulinaemic (100 eU/ml) euglycaemic (5.5 mM/l) glucose clamping was used. The glucose clamping values (M) were established as values of glucose infusion rates expressed in mg/kg/min to maintain blood glucose level at 5.5 mM/l.

Experiment [3] has as its system hypercholesterolaemic, insulin resistant conscious rabbits. The experiment is described as follows: Hyperinsulinaemic euglycaemic glucose clamping (insulin sensitivity), hypercholesterolaemic rabbits. It counts as in vivo, New Zealand white rabbits. The note with it: for Glucose infusion rate / M values of hyperinsulinaemic and euglycaemic glucose clamping: hypercholesterolaemic; for Glucose infusion rate: insulin resistant rabbit; for Insulin sensitivity: percent of means, control = 100. On the procedure:
(§3) The experiments are carried out with adult, male New Zealand white rabbits, weighing 3.0-3.5 kg, housed as described in Am. […] Physiol, 35: H2033-H2041 and J. Moll Cell.. Cardiol.
as §2

Experiment [4] concerns streptozotocin diabetic rabbits. The experiment is described as follows: Femoral nerve conduction velocity, streptozotocin diabetes. Type of experiment: in vivo, New Zealand white rabbits. On the procedure: as §1
These series of experiments were carried out to verify/exclude sensory neuropathy. Left saphenous nerve conduction velocity was determined as described in Eur J. Pharmacol 1999, 386:83-88.
Streptozotocin (40 mg/kg i.v.) produced a decrease in nerve conduction velocity in femoral “A” and “C” fibres, respectively, as determined 8 weeks after streptozotocin injection. […] The combination of any of these drugs with nitroglycerin yielded an improvement of conduction velocity in streptozotocin-diabetic aminals similar to that seen with nitroglycerin alone.

The subject of experiment [5] is hypercholesterolaemic, insulin resistant rabbits. The experiment can be described thus: Femoral nerve conduction velocity, hyperlipidaemia-induced insulin resistance. Type of experiment: in vivo, New Zealand white rabbits. On the procedure:
as §3
These series of experiments were carried out to verify/exclude sensory neuropathy.

Experiment [6] has as its system normal conscious rabbits. The experiment can be described thus: Ventricular pacing-induced myocardial ischaemia (ST-segment elevation), normal rabbits. It counts as in vivo, New Zealand white rabbits. On the procedure:
as §3
(§4) The induction of global myocardial ischaemia was based on a method described as above.

Experiment [7] concerns hypercholesterolaemic, insulin resistant conscious rabbits. The experiment is described as follows: Ventricular pacing-induced myocardial ischaemia (ST-segment elevation), hypercholesterolaemic rabbits. Type of experiment: in vivo, New Zealand white rabbits. The note with it: hypercholesterolaemic. On the procedure: as §3, §4
A further experiment has as its system human. The note with it: controlled release ISMN preparations; cited from earlier work.
Setting [8] is: sampling 0 (control), active patch approx. 0.4 mg/hour nitroglycerin, n=20.
Where [9] appears, read: Table I, sampling 0 (control), active patch.
Setting [10] is: normal rabbits, 2 mg/kg per os ISMN.
[11] abbreviates: normal rabbits, 2 mg/kg per os controlled release ISMN.
The mark [12] stands for this setting: normal rabbits, 4 mg/kg per os controlled release ISMN.

Regarding `N=c1c[n+](N2CCOCC2)[n-]o1` [SIN-1, 3-morpholinosydnonimine], the insulin release result in [1] is listed as “inhibit insulin release”.

In the case of `O=[N+]([O-])OCC(CO[N+](=O)[O-])O[N+](=O)[O-]` [Nitroglycerin, nitroglycerin], the Insulin is listed as 38.9 ± 4.4^#+ μU ml^−1 in the experiment on healthy volunteers (15 min, active patch); 36.3 ± 5.0^#+ μU ml^−1 in the experiment on healthy volunteers (30 min, active patch); 25.6 ± 3.3^#+ μU ml^−1 with healthy volunteers (60 min, active patch); 24.1 ± 2.9^#+ μU ml^−1 in the experiment on healthy volunteers (90 min, active patch); 15.2 ± 2.4^+ μU ml^−1 in the experiment with healthy volunteers (120 min, active patch); 14.4 ± 2.6^ μU ml^−1 in the experiment on healthy volunteers (180 min, active patch). Besides, the Insulin in the experiment on healthy volunteers (setting [8]) is 8.2 ± 0.9^ μU ml^−1; in the experiment on healthy volunteers (Table I, 15 min, active patch), 38.9 ± 4.4 μU mL^−1; in the experiment on healthy volunteers (Table I, 30 min, active patch) it was 36.3 ± 5.0 μU mL^−1; in the experiment with healthy volunteers (Table I, 60 min, active patch), 25.6 ± 3.3 μU mL^−1; in the experiment with healthy volunteers (Table I, 90 min, active patch), 24.1 ± 2.9 μU mL^−1; in the experiment on healthy volunteers (Table I, 120 min, active patch) it was 15.2 ± 2.4 μU mL^−1. The Insulin is recorded as 14.4 ± 2.6 μU mL^−1 in the experiment with healthy volunteers (Table I, 180 min, active patch) and 8.2 ± 0.9 μU mL^−1 with healthy volunteers (setting [9]). In addition, the Glucose is 7.3 ± 1.1^+ mmol l^−1 in the experiment with healthy volunteers (15 min after glucose load, active patch); 6.1 ± 0.6^+ mmol l^−1 in the experiment on healthy volunteers (30 min, active patch); 5.5 ± 0.4 mmol/L in the experiment on healthy volunteers (60 min, active patch); 4.7 ± 0.7 mmol/L in the experiment with healthy volunteers (90 min, active patch); 4.2 ± 0.3 mmol/L with healthy volunteers (120 min, active patch); 4.5 ± 0.5 mmol/L in the experiment with healthy volunteers (180 min, active patch). In addition, the Glucose in the experiment with healthy volunteers (setting [8]) is 4.2 ± 0.3 mmol/L; with healthy volunteers (Table I, 15 min, active patch) it was 7.3 ± 1.1 mmol⁻¹; with healthy volunteers (Table I, 30 min, active patch), 6.1 ± 0.6 mmol⁻¹; in the experiment on healthy volunteers (Table I, 60 min, active patch), 5.5 ± 0.4 mmol⁻¹; in the experiment with healthy volunteers (Table I, 90 min, active patch), 4.7 ± 0.7 mmol⁻¹; in the experiment with healthy volunteers (Table I, 120 min, active patch), 4.2 ± 0.3 mmol⁻¹. The Glucose with healthy volunteers (Table I, 180 min, active patch) worked out at 4.5 ± 0.5 mmol⁻¹; with healthy volunteers (setting [9]) it was 4.2 ± 0.3 mmol⁻¹. Moreover, in the experiment with healthy volunteers (active vs placebo patch group), the plasma glucose levels entry was “no differences”. Besides, the “increase in insulin in response to oral glucose load” value with healthy volunteers (compared to placebo patch group) is reported as “significantly decreased”. The Glucose infusion rate in the experiment on normal conscious rabbits [2] (normal rabbit, with active patch (nitroglycerin 0.07 mg/kg/h), alone (Control) or together with the drug, troglitazon 70 mg/kg p.os, metformin 5 mg/kg i.v., glibenclamide 1 mg/kg i.v., idazoxan 2 mg/kg i.v.) came out at 16.857 mg/kg/min; in [3] (with active patch (nitroglycerin 0.07 mg/kg/h), alone (Control) or together with the drug, same doses), 12.667 mg/kg/min. The “M values of hyperinsulinaemic and euglycaemic glucose clamping” value in experiment [3] (insulin resistant rabbits, nitroglycerin (0, 0.7 mg/kg/h) alone) was “increased”. The molecule also gave an Insulin sensitivity in experiment [3] (nitroglycerin patch 0.07 mg/kg/h, metformin 5 mg/kg i.v., troglitazon 70 mg/kg p.os) of 140.7%. In addition, the Nerve conduction velocity in experiment [4] (femoral “C” fibers, streptozotocin diabetic rabbit, with active patch (nitroglycerin 0.07 mg/kg/h), alone (Control) or with the drug) stood at 3.6 ± 0.2 dm/s; in experiment [5] (femoral “C” fibers, hypercholesterolaemic, insulin resistant rabbit, with active patch (nitroglycerin 0.07 mg/kg/h), alone (Control) or with troglitazon 70 mg/kg p.os), 4.3 ± 0.4 dm/s. Further, the “nerve conduction in “C” fibres” value in [4] (streptozotocin-diabetes model, drug alone, nitroglycerin 12-h patch on vs 12-h patch off over three days) is reported as “significantly improved”. In addition, in [4] (streptozotocin-diabetes model, nitroglycerin patch, data not shown), the ““A” fibre conduction” value was “marginal amelioration”. Moreover, the “decrease in nerve conduction velocity in “C” fibres after atherogenic diet” value in experiment [5] (eight-week atherogenic diet, drug alone) is “attenuated”. Further, the “intracavitary ST-segment elevation” value in the experiment on normal conscious rabbits [6] (normal conscious rabbits, drug alone) was “significantly decreased”. In addition, the ST-segment elevation is on record as 0.7 ± 0.10 mV with normal conscious rabbits [6] (normal rabbit, with active patch (nitroglycerin 0.07 mg/kg/h), alone (Control) or with the drug) and 1.4 ± 0.10 mV in experiment [7] (insulin resistant rabbit, with active patch (nitroglycerin 0.07 mg/kg/h), alone (Control) or with the drug). In addition, the “intracavitary ST-segment elevation / ischaemic changes produced by VOP” value in experiment [7] (insulin resistant rabbits, drug alone) is “significantly decreased”.

In the case of `O=[N+]([O-])O[C@@H]1CO[C@H]2[C@@H]1OC[C@@H]2O` [ISMN, isosorbide-5-mononitrate], the Glucose infusion rate with normal conscious rabbits [2] (normal rabbit, metformin 100 mg/kg p.os, ISMN controlled release 5 mg/kg p.os) is 16.30 ± 0.8200 mg/kg/min; in the experiment on normal conscious rabbits [2] (normal rabbits, 1 mg/kg per os controlled release ISMN, control 13.6), 14.2 ± 0.8 mg/kg/min; with normal conscious rabbits [2] (setting [11]), 16.0 ± 0.9 mg/kg/min; in the experiment on normal conscious rabbits [2] (setting [12]), 16.3 ± 1.0 mg/kg/min; in experiment [3] (metformin 100 mg/kg p.os, ISMN controlled release 5 mg/kg p.os), 14.00 ± 0.8900 mg/kg/min. In the experiment with normal conscious rabbits [2] (normal rabbits, 1 mg/kg per os ISMN), the “metabolic (insulin sensitising) and anti-ischaemic effect” value was “without any effect”. Moreover, the “metabolic (insulin sensitising) effect” value with normal conscious rabbits [2] (setting [10]) was “significant metabolic effect”. In the experiment on normal conscious rabbits [2] (normal rabbits, 4 mg/kg and higher doses per os ISMN), the “metabolic and anti-ischaemic effects” value was “metabolic and anti-ischaemic effects”. Further, the “M values of hyperinsulinaemic and euglycaemic glucose clamping” value in the experiment with normal conscious rabbits [2] (normal rabbits, drug alone vs control, isosorbide-5-mononitrate 1 mg/kg/day (Olicard 40), metformin 100 mg/kg/day p.os over 3 days) is listed as “increased”; in [3] (insulin resistant rabbits vs control, ISMN 5 mg/kg/day (Olicard 40), metformin 100 mg/kg/day p.os over 3 days), “significantly increased”. Moreover, the “threshold dose of insulin sensitising effect as share of the threshold dose of the anti-ischaemic effect” value with normal conscious rabbits [2] (normal rabbits, per os ISMN) was 50%. In addition, in the experiment on normal conscious rabbits [2] (normal rabbits, per os extended-release ISMN), the “threshold dose of the insulin sensitising effect” value turned out to be 2 mg/kg. The same molecule registered an Insulin sensitivity in experiment [3] (ISMN controlled release 5 mg/kg p.os, metformin 100 mg/kg p.os) of 144.4%. Further, the ST-segment elevation in the experiment on normal conscious rabbits [6] (normal rabbits, 1 mg/kg per os controlled release ISMN, control 2.0) came out at 2.0 ± 0.09 mV; in the experiment with normal conscious rabbits [6] (setting [11]) it was 1.9 ± 0.16 mV; in the experiment on normal conscious rabbits [6] (setting [12]), 1.4 ± 0.12 mV. Also, in the experiment on normal conscious rabbits [6] (setting [10]), the “anti-ischaemic effect (changes in ST-segment elevation)” value is “statistically insignificant anti-ischaemic effect”. Moreover, the threshold anti-anginal dose with human is recorded as 30 mg/day.
